Source: patent US20110294766A1, “16 Alpha, 17 Alpha-Acetal Glucocorticosteroidal Derivatives and their Use” (AstraZeneca AB, priority 2008, published 2011)

Target: T1, recombinant human GR (Homo sapiens, UniProt P04150)
T1 construct: purchased Panvera/Invitrogen P2812 (kit P2893)
T1 sequence (P04150 1-777): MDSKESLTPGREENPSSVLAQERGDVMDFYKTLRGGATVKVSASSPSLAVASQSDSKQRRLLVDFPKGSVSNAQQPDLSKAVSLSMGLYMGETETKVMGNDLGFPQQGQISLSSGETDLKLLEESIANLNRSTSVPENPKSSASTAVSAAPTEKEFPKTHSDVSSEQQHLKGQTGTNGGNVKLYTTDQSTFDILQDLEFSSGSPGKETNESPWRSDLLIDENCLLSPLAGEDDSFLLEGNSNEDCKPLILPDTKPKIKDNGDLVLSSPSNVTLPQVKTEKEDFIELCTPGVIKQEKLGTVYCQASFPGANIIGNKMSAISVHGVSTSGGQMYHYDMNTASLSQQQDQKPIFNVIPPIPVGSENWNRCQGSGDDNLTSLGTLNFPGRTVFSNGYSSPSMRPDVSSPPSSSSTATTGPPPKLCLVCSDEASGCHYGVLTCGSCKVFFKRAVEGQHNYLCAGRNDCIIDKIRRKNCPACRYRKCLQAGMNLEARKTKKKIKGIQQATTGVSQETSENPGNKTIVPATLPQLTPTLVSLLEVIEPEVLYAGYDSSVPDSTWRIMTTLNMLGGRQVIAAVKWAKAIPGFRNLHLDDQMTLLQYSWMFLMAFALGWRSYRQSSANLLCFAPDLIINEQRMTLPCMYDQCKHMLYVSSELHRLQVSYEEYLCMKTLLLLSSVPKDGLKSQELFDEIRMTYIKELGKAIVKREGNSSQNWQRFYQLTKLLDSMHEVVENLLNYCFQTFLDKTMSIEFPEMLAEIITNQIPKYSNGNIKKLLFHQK
Experiment: Human Glucocorticoid Receptor (GR) Assay (fluorescence polarization, Panvera/Invitrogen kit)
Details: GS Red tracer, 2 hours at room temperature, 100% control 10 μM Dexamethasone, read-out: Inhibition of GR binding, IC50
Description: Human Glucocorticoid Receptor (GR) Assay The assay is based on a commercial kit from Panvera/Invitrogen (Part number P2893). The assay technology is fluorescence polarization. The kit utilises recombinant human GR (Panvera, Part number P2812), a Fluoromone™ labelled tracer (GS Red, Panvera, Part number P2894) and a Stabilizing Peptide 10× (Panvera, Part number P2815). The GR and Stabilizing Peptide reagents are stored at −70° C. while the GS Red is stored at −20° C. Also included in the kit are 1M DTT (Panvera, Part number P2325, stored at −20° C.) and GR Screening buffer 10× (Panvera, Part number P2814, stored at −70° C. initially but once thawed stored at room temperature). Avoid repeated freeze/thaws for all reagents. The GR Screening buffer 10× comprises 100 mM potassium phosphate, 200 mM sodium molybdate, 1 mM EDTA and 20% DMSO. Test compounds (1 μL) and controls (1 μL) in 100% DMSO were added to black polystyrene 384-well plates (Greiner low volume black flat-bottom, part number 784076). 0% control was 100% DMSO and 100% control was 10 μM Dexamethasone. Background solution (8 μL; assay buffer 10×, Stabilizing Peptide, DTT and ice cold MQ water) was added to the background wells. GS Red solution (7 μL; assay buffer 10×, Stabilizing Peptide, DTT, GS Red and ice cold water) was added to all wells except background wells. GR solution (7 μL; assay buffer 10×, Stabilizing Peptide, DTT, GR and ice cold water) was added to all wells. The plate was sealed and incubated in a dark at room temperature for 2 hours. The plate was read in an Analyst plate reader (LJL Biosystems/Molecular Devices Corporation) or other similar plate reader capable of recording fluorescence polarization (excitation wavelength 530 nm, emission wavelength 590 nm and a dichroic mirror at 561 nm).

SMILES | IC50 [nM]
C[C@]12C=CC(=O)C=C1[C@@H](F)C[C@H]1[C@@H]3C[C@H]4OC(c5ccc6ncccc6c5)O[C@@]4(C(=O)SCC#N)[C@@]3(C)C[C@H](O)[C@@]12F (stereo partly drawn) [Example 16, S-(Cyanomethyl)(4aS,4bR,5S,6aS,6bS,9aR,10aS,10bS,12S)-4b,12-difluoro-5-hydroxy-4a,6a-dimethyl-2-oxo-8-quinolin-6-yl-2,4a,4b,5,6,6a,9a,10,10a,10b,11,12-dodecahydro-6bH-naphtho[2′,1′:4,5]indeno[1,2-d][1,3]dioxole-6b-carbothioate] | 1.5
Cc1ccc(C2O[C@@H]3C[C@H]4[C@@H]5C[C@H](F)C6=CC(=O)C=C[C@]6(C)[C@@]5(F)[C@@H](O)C[C@]4(C)[C@]3(C(=O)SCF)O2)cc1 (stereo partly drawn) [Example 17, S-(Fluoromethyl)(4aS,4bR,5S,6aS,6bS,9aR,10aS,10bS,12S)-4b,12-difluoro-5-hydroxy-4a,6a-dimethyl-8-(4-methylphenyl)-2-oxo-2,4a,4b,5,6,6a,9a,10,10a,10b,11,12-dodecahydro-6bH-naphtho[2′,1′:4,5]indeno[1,2-d][1,3]dioxole-6b-carbothioate] | 1.8
C[C@]12C=CC(=O)C=C1[C@@H](F)C[C@H]1[C@@H]3C[C@H]4OC(c5ccc(C(F)(F)F)cc5)O[C@@]4(C(=O)SCF)[C@@]3(C)C[C@H](O)[C@@]12F (stereo partly drawn) [Example 18, S-(Fluoromethyl)(4aS,4bR,5S,6aS,6bS,9aR,10aS,10bS,12S)-4b,12-difluoro-5-hydroxy-4a,6a-dimethyl-2-oxo-8-[4-(trifluoromethyl)phenyl]-2,4a,4b,5,6,6a,9a,10,10a,10b,11,12-dodecahydro-6bH-naphtho[2′,1′:4,5]indeno[1,2-d][1,3]dioxole-6b-carbothioate] | 3.7
C[C@]12C=CC(=O)C=C1[C@@H](F)C[C@H]1[C@@H]3C[C@H]4OC(c5ccc(OC(F)(F)F)cc5)O[C@@]4(C(=O)SCC#N)[C@@]3(C)C[C@H](O)[C@@]12F (stereo partly drawn) [Example 19, S-(Cyanomethyl)(4aS,4bR,5S,6aS,6bS,9aR,10aS,10bS,12S)-4b,12-difluoro-5-hydroxy-4a,6a-dimethyl-2-oxo-8-[4-(trifluoromethoxy)phenyl]-2,4a,4b,5,6,6a,9a,10,10a,10b,11,12-dodecahydro-6bH-naphtho[2′,1′:4,5]indeno[1,2-d][1,3]dioxole-6b-carbothioate] | 4.8
C[C@]12C=CC(=O)C=C1[C@@H](F)C[C@H]1[C@@H]3C[C@H]4OC(c5ccc(C(F)(F)F)cc5)O[C@@]4(C(=O)SCC#N)[C@@]3(C)C[C@H](O)[C@@]12F (stereo partly drawn) [Example 20, S-(Cyanomethyl)(4aS,4bR,5S,6aS,6bS,9aR,10aS,10bS,12S)-4b,12-difluoro-5-hydroxy-4a,6a-dimethyl-2-oxo-8-[4-(trifluoromethyl)phenyl]-2,4a,4b,5,6,6a,9a,10,10a,10b,11,12-dodecahydro-6bH-naphtho[2′,1′:4,5]indeno[1,2-d][1,3]dioxole-6b-carbothioate] | 2.4
C[C@]12C=CC(=O)C=C1[C@@H](F)C[C@H]1[C@@H]3C[C@H]4OC(c5ccc(Cl)cc5)O[C@@]4(C(=O)SCC#N)[C@@]3(C)C[C@H](O)[C@@]12F (stereo partly drawn) [Example 28, S-(Cyanomethyl)(4aS,4bR,5S,6aS,6bS,9aR,10aS,10bS,12S)-8-(4-chlorophenyl)-4b,12-difluoro-5-hydroxy-4a,6a-dimethyl-2-oxo-2,4a,4b,5,6,6a,9a,10,10a,10b,11,12-dodecahydro-6bH-naphtho[2′,1′,4,5]indeno[1,2-d][1,3]dioxole-6b-carbothioate] | 1.3

Now those with a lower IC50, led by results:

IC50 [nM] | SMILES
0.57 | C[C@]12C=CC(=O)C=C1[C@@H](F)C[C@H]1[C@@H]3C[C@H]4OC(c5ccccc5F)O[C@@]4(C(=O)SCF)[C@@]3(C)C[C@H](O)[C@@]12F (stereo partly drawn) [Example 21, S-(Fluoromethyl)(4aS,4bR,5S,6aS,6bS,9aR,10aS,10bS,12S)-4b,12-difluoro-8-(2-fluorophenyl)-5-hydroxy-4a,6a-dimethyl-2-oxo-2,4a,4b,5,6,6a,9a,10,10a,10b,11,12-dodecahydro-6bH-naphtho[2′,1′:4,5]indeno[1,2-d][1,3]dioxole-6b-carbothioate]
0.85 | Cc1ccccc1C1O[C@@H]2C[C@H]3[C@@H]4C[C@H](F)C5=CC(=O)C=C[C@]5(C)[C@@]4(F)[C@@H](O)C[C@]3(C)[C@]2(C(=O)SCF)O1 (stereo partly drawn) [Example 22, S-(Fluoromethyl)(4aS,4bR,5S,6aS,6bS,9aR,10aS,10bS,12S)-4b,12-difluoro-5-hydroxy-4a,6a-dimethyl-8-(2-methylphenyl)-2-oxo-2,4a,4b,5,6,6a,9a,10,10a,10b,11,12-dodecahydro-6bH-naphtho[2′,1′:4,5]indeno[1,2-d][1,3]dioxole-6b-carbothioate]
0.99 | C[C@]12C=CC(=O)C=C1[C@@H](F)C[C@H]1[C@@H]3C[C@H]4OC(c5cccc(F)c5)O[C@@]4(C(=O)SCC#N)[C@@]3(C)C[C@H](O)[C@@]12F (stereo partly drawn) [Example 23, S-(Cyanomethyl)(4aS,4bR,5S,6aS,6bS,9aR,10aS,10bS,12S)-4b,12-difluoro-8-(3-fluorophenyl)-5-hydroxy-4a,6a-dimethyl-2-oxo-2,4a,4b,5,6,6a,9a,10,10a,10b,11,12-dodecahydro-6bH-naphtho[2′,1′:4,5]indeno[1,2-d][1,3]dioxole-6b-carbothioate]
1.2 | Cc1ccc(C2O[C@@H]3C[C@H]4[C@@H]5C[C@H](F)C6=CC(=O)C=C[C@]6(C)[C@@]5(F)[C@@H](O)C[C@]4(C)[C@]3(C(=O)SCC#N)O2)cc1 (stereo partly drawn) [Example 24, S-(Cyanomethyl)(4aS,4bR,5S,6aS,6bS,9aR,10aS,10bS,12S)-4b,12-difluoro-5-hydroxy-4a,6a-dimethyl-8-(4-methylphenyl)-2-oxo-2,4a,4b,5,6,6a,9a,10,10a,10b,11,12-dodecahydro-6bH-naphtho[2′,1′:4,5]indeno[1,2-d][1,3]dioxole-6b-carbothioate]
0.7 | C[C@]12C=CC(=O)C=C1[C@@H](F)C[C@H]1[C@@H]3C[C@H]4OC(c5cccc(C#N)c5)O[C@@]4(C(=O)SCC#N)[C@@]3(C)C[C@H](O)[C@@]12F (stereo partly drawn) [Example 25, S-(Cyanomethyl)(4aS,4bR,5S,6aS,6bS,9aR,10aS,10bS,12S)-8-(3-cyanophenyl)-4b,12-difluoro-5-hydroxy-4a,6a-dimethyl-2-oxo-2,4a,4b,5,6,6a,9a,10,10a,10b,11,12-dodecahydro-6bH-naphtho[2′,1′:4,5]indeno[1,2-d][1,3]dioxole-6b-carbothioate]
1.1 | C[C@]12C=CC(=O)C=C1[C@@H](F)C[C@H]1[C@@H]3C[C@H]4OC(c5ccc(F)cc5)O[C@@]4(C(=O)SCC#N)[C@@]3(C)C[C@H](O)[C@@]12F (stereo partly drawn) [Example 26, S-(Cyanomethyl)(4aS,4bR,5S,6aS,6bS,9aR,10aS,10bS,12S)-4b,12-difluoro-8-(4-fluorophenyl)-5-hydroxy-4a,6a-dimethyl-2-oxo-2,4a,4b,5,6,6a,9a,10,10a,10b,11,12-dodecahydro-6bH-naphtho[2′,1′:4,5]indeno[1,2-d][1,3]dioxole-6b-carbothioate]
1.1 | C[C@]12C=CC(=O)C=C1[C@@H](F)C[C@H]1[C@@H]3C[C@H]4OC(c5ccccc5F)O[C@@]4(C(=O)SCC#N)[C@@]3(C)C[C@H](O)[C@@]12F (stereo partly drawn) [Example 27, S-(Cyanomethyl)(4aS,4bR,5S,6aS,6bS,9aR,10aS,10bS,12S)-4b,12-difluoro-8-(2-fluorophenyl)-5-hydroxy-4a,6a-dimethyl-2-oxo-2,4a,4b,5,6,6a,9a,10,10a,10b,11,12-dodecahydro-6bH-naphtho[2′,1′:4,5]indeno[1,2-d][1,3]dioxole-6b-carbothioate]
